Molecular target: T1, Solute carrier family 15 member 1 (Homo sapiens, UniProt P46059)
T1 sequence (P46059 whole entry): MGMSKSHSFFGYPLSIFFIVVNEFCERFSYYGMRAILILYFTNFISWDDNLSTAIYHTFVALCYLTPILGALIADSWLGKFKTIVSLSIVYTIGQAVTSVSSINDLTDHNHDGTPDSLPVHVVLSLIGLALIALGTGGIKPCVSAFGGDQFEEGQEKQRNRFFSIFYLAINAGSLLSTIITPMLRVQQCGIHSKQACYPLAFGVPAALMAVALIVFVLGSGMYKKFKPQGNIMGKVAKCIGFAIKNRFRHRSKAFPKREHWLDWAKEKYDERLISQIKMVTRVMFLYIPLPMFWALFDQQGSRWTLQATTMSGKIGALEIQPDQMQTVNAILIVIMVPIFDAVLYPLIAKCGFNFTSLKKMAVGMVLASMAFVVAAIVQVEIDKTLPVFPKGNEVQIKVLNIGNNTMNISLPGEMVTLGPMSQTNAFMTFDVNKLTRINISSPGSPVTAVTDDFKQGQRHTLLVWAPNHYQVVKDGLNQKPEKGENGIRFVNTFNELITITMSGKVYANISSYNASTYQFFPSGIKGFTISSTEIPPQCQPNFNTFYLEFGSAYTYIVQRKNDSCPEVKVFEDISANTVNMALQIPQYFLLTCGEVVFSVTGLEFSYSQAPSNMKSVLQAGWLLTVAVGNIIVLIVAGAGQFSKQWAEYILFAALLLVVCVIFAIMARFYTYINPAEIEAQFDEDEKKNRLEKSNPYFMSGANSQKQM
Assay: TP_TRANSPORTER: inhibition of Gly-Sar uptake, 96% trans conformation in Caco-2 cells
Type: functional, cell-based

Ki: 300 µM
SMILES: CC(N)C(=S)N1CCCC1C(=O)O (stereo unspecified)
